Square brackets hold non-standard residues; d marks the D form. Ends that are not written are not given here.
Tested on: mouse ADAMTS7
Experiment: TMT10 TAILS N-terminomics, SMC2 experiment (process replicates, trypsin/AspN digest)
Type: cell-based
Summary of the method: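 Full-length mouse ADAMTS7 (WT or E373Q mutant, C-terminal 3xFLAG) or luciferase was transduced via adenovirus, 50 MOI, into HCA-SMC (SMC1, SMC2) or HUVEC. SMC1: pooled media, technical triplicates 400 ug; SMC2: process triplicates 300 ug; HUVEC: process triplicates 200 ug, bFGF2 10 ng/ml.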

[1] = SMC2_TAILS HC, log fold change, mWT over mEQ
[2] = log fold change, ADAMTS7 WT over EQ
[3] = SMC2_TAILS HC, log fold change of N-terminal peptide, Ad-mADAMTS7 WT over EQ

| Substance | logFC.mWT.over.mEQ [1] | logFC.mWT.over.mEQ [2] | other results |
| --- | --- | --- | --- |
| ACTG1_105 (LTEAPLNPKANR; listed as Homo sapiens) | 2.11 |  |  |
| ACTN4_5 (HAANQSYQYGPSSAGNGAGGGGSMG; listed as Homo sapiens) | 2.64 |  |  |
| ADAM9_74 (GKEHIIHLER; listed as Homo sapiens) | 4.31 |  |  |
| ADAM10_86 (FKVETSNKVL; listed as Homo sapiens) | 2.74 |  |  |
| ADNP2_375 (SQPVGPVNK; listed as Homo sapiens) | 0.75 |  |  |
| AMER2_654 (LAGTTIRATACH; listed as Homo sapiens) | 0.90 |  |  |
| APLP2_452 (LVETHLAR; listed as Homo sapiens) | 2.59 |  |  |
| APOA1_86 (EQLGPVTQEFW; listed as Homo sapiens) | 1.88 |  |  |
| BMPER_43 (LTGSVAKCENEG; listed as Homo sapiens) | 2.43 |  |  |
| CALU_176 (FTAFLHPEEY; listed as Homo sapiens) | 2.38 |  |  |
| CAP1_300 (FSAPKPQTSPSPKR; listed as Homo sapiens) | 2.81 |  |  |
| CCL2_28 (INAPVTCCYNFTNR; listed as Homo sapiens) | 1.46 |  |  |
| CEP192_728 (DKSTAGR; listed as Homo sapiens) | 2.95 |  |  |
| CTSB_109 (WAFGAVEAIS; listed as Homo sapiens) | 1.73 |  |  |
| DBN1_434 (APVEPATA; listed as Homo sapiens) | 1.57 |  |  |
| DIS3L_75 (FPELKGIIFMQTACQAVQHQR; listed as Homo sapiens) | 1.78 |  |  |
| ECM1_38 (FQEVGYAAPPSPPLSR; listed as Homo sapiens) | 1.57 |  |  |
| ECM1_44 (AAPPSPPLSR; listed as Homo sapiens) | 2.54 |  |  |
| ECM1_108 (QEAVPLQK; listed as Homo sapiens) | 3.34 |  |  |
| EEF1G_23 (QYSGAQVR; listed as Homo sapiens) | 3.30 |  |  |
| EIF4B_426 (QTGTSTTSSR; listed as Homo sapiens) | 5.12 |  |  |
| EMSY_943 (QTVVQVLAVK; listed as Homo sapiens) | 0.92 |  |  |
| FBLN2_665 (FSQVASNTIPLPLPQPNTCK; listed as Homo sapiens) | 1.89 |  |  |
| FLNA_689 (VNKPAEFTV; listed as Homo sapiens) | 6.12 |  |  |
| FLNC_2649 (FVGQKNSFTV; listed as Homo sapiens) | 3.97 |  |  |

| Substance | logFC.mWT.over.mEQ [1] | logFC.mWT.over.mEQ [2] | other results |
| --- | --- | --- | --- |
| FN1_35 ([code q]MVQPQSPVAVSQSKPGCY; not fully specified (residue 2); listed as Homo sapiens) | 2.08 |  |  |
| FN1_99 (DKYTGNTYR; listed as Homo sapiens) | 1.43 |  |  |
| FN1_607 (SSSGPVEVFIT; listed as Homo sapiens) | 0.63 |  |  |
| FN1_1693 (LQPTVEYVVSVYAQNPSG; listed as Homo sapiens) | 2.05 |  |  |
| FN1_1780 (LQGLRPGSEYTVSVVALH; listed as Homo sapiens) | 2.01 |  |  |
| FN1_1805 (LIGTQSTAIPAPT; listed as Homo sapiens) | 1.73 |  |  |
| FN1_2113 (FVTHPGY; listed as Homo sapiens) | 1.57 |  |  |
| FOXG1_235 (LNKCFVKVPRHY; listed as Homo sapiens) | 3.34 |  |  |
| FSTL1_290 (LQKHQETA; listed as Homo sapiens) |  |  | SMC2 logFC.mWT.over.mEQ (TAILS HC Overlap, SMC2, log fold change mouse ADAMTS7 WT over catalytically inactive EQ): 2.86 |
| FSTL_1290 (LQKHQETA; listed as Homo sapiens) | 2.86 |  |  |
| HEG1_51 (GLELQLER; listed as Homo sapiens) | 0.65 |  |  |
| HEG1_224 (FQTKSGTAS; listed as Homo sapiens) | 3.25 |  |  |
| KCND1_436 (RLAKSGTTNAFLQYKQNGGLE; listed as Homo sapiens) | 1.74 |  |  |
| KRT28_2 (SLQFSNGSR; listed as Homo sapiens) | 2.22 |  |  |
| LASP1_182 (SYGGYKEPAAPVSIQR; listed as Homo sapiens) | 1.01 |  |  |
| LOXL1_157 (SVSASAFASTYR; listed as Homo sapiens) | 2.90 |  |  |
| LOX_60 (LGSQYQPQR; listed as Homo sapiens) | 1.59 |  |  |
| LOX_125 (FQAGYSTSR; listed as Homo sapiens) | 3.33 |  |  |
| QSOX1_558 (VAAAPELAMGALELESR; listed as Homo sapiens) |  | 1.13 |  |
| SDC4_106 (LEENEVIPKR; listed as Homo sapiens) |  | 1.67 |  |
| SERPINH1_27 (AAAPGTAEKLSPKAATLAER; listed as Homo sapiens) |  | 3.30 |  |
| SMOC1_35 (LISDRDPQCNLHCSR; listed as Homo sapiens) |  | 1.62 |  |
| SPOCK1_126 (HWVGPSNLVK; listed as Homo sapiens) |  | 0.93 |  |
| SRGN_50 (LEEKGPMFELLPGESNKIPR; listed as Homo sapiens) |  | 3.28 |  |
| SRGN_51 (EEKGPMFELLPGESNKIPR; listed as Homo sapiens) |  | 1.79 |  |

| Substance | logFC.mWT.over.mEQ [1] | logFC.mWT.over.mEQ [2] | other results |
| --- | --- | --- | --- |
| SRGN_60 (LPGESNKIPR; listed as Homo sapiens) |  | 3.25 |  |
| SRGN_62 (GESNKIPR; listed as Homo sapiens) |  | 3.26 |  |
| STC1_37 (QNSAEVVR; listed as Homo sapiens) |  | 4.78 |  |
| STC2_239 (HGEAGHHLPEPSSR; listed as Homo sapiens) |  | 1.70 |  |
| STC2_244 (HHLPEPSSR; listed as Homo sapiens) |  | 1.35 |  |
| TGFBI_24 (GPAKSPYQLVLQHSR; listed as Homo sapiens) |  | 0.71 |  |
| TGFBI_43 ([code q]HGPNVCAVQKVIGTNR; not fully specified; listed as Homo sapiens) |  | 0.75 |  |
| TGFBI_50 (AVQKVIGTNR; listed as Homo sapiens) |  | 0.64 |  |
| TGFBI_208 (GIVTVNCAR; listed as Homo sapiens) |  | 0.59 |  |
| TGFBI_276 (TLLAPT[code n]EAFEKIPSETLNR; not fully specified; listed as Homo sapiens) |  | 0.66 |  |
| TGFBI_497 (VLTPPMGTVMDVLKGDNR; not fully specified (residue 6); listed as Homo sapiens) |  | 0.61 |  |
| TGFBI_524 (SAGLTETLNR; listed as Homo sapiens) |  | 0.66 |  |
| TGFBI_534 (EGVYTVFAPTNEAFR; listed as Homo sapiens) |  | 0.82 |  |
| TG_1017 (GASALLR; listed as Homo sapiens) |  | 3.05 |  |
| THBS1_972 (QNDPNWVVR; listed as Homo sapiens) |  | 3.59 |  |
| TLN1_1501 (HTSALCNSCR; listed as Homo sapiens) |  | 1.48 |  |
| TMEM132A_52 (LLDAPEHFR; listed as Homo sapiens) |  | 2.95 |  |
| VASN_138 (HIQPGAFDTLDR; listed as Homo sapiens) |  | 1.45 |  |
| VASP_229 (AIAGAKLR; listed as Homo sapiens) |  | 4.56 |  |
| VCAN_3367 (FKNSSSAK; listed as Homo sapiens) |  |  | logFC.mWT.over.mEQ [3]: 1.51 |
| VIM_276 (YESVAAKNLQ; listed as Homo sapiens) |  |  | logFC.mWT.over.mEQ [3]: 0.83 |
| VIM_322 (QVQSLTCEV; listed as Homo sapiens) |  |  | logFC.mWT.over.mEQ [3]: 1.11 |
| VIM_433 (LVDTHSKR; listed as Homo sapiens) |  | 2.79 |  |
| ZSCAN4_25 (FQQSQGPAVQR; listed as Homo sapiens) |  |  | logFC.mWT.over.mEQ [3]: 2.89 |

— patent publication US20240368668A1, “SUBSTRATES AND BIOMARKERS OF ADAMTS7” (The Broad Institute, Inc., priority 2021, published 2024)
